In PMC6146087, “α-Glucosidase Inhibitors From the Coral-Associated Fungus Aspergillus terreus” (Frontiers in Chemistry, 2018) one finds IC50 data, which are given here for nine compounds.

For this test, the target named is T1, α-glucosidase enzyme from Saccharomyces cerevisiae (Saccharomyces cerevisiae, UniProt P53341).
T1 construct: purchased Sigma Aldrich, USA
T1 sequence (P53341 whole entry): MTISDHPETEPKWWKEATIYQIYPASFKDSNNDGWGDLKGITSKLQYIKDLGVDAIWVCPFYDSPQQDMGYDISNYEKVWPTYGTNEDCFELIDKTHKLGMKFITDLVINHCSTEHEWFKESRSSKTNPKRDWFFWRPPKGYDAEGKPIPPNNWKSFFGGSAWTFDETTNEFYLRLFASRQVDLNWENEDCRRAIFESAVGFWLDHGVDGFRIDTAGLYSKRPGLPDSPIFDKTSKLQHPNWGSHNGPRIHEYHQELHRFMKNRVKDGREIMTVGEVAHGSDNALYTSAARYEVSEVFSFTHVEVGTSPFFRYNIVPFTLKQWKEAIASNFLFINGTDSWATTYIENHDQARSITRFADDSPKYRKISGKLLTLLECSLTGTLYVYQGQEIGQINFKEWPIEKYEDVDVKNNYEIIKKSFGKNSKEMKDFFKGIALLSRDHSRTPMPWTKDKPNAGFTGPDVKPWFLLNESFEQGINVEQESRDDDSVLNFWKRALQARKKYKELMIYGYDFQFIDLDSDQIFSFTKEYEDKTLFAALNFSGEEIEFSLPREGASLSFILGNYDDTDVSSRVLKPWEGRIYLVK
The experiment in a line: biochemical. On the procedure:
The α-glucosidase enzyme from Saccharomyces cerevisiae (Sigma Aldrich, USA) solution (1.5 U/mL) was prepared by dissolving the α-glucosidase in […] phosphate buffer (pH 6.8). The α-glucosidase enzyme solution (20 μL), test compounds (10 μL) and buffer (40 μL) were pipetted and mixed in a 96 well microtiter plate. The mixture was incubated at 37°C for 10 min. After incubation, p-nitrophenyl-α-D-glucopyranoside (PNP-G) substrate solution (10 μL, in 20 mM phosphate buffer) was added. The increment of absorbance due to the hydrolysis of PNP-G by α-glucosidase was measured at the wavelength of 410 nm with a microplate reader (Thermo Scientific, Waltham, MA). […] The α-glucosidase inhibitory activity was expressed as percentage inhibition and was calculated using the following formula: inhibition (%) = [1–(ODsample/ODblank)] × 100.
`COc1ccc(C2=C(Cc3ccc4c(c3)CC(C(C)(C)O)O4)[C@H](OC)OC2=O)cc1` (single isomer, unassigned; (+)) [3b, (+)-Asperteretone C] had an IC50 of 49.8 ± 5.7 µM.

With `COc1ccc(C2=C(Cc3ccc4c(c3)CC(C(C)(C)O)O4)[C@@H](OC)OC2=O)cc1` (single isomer, unassigned; (-)) [3a, (−)-Asperteretone C], the IC50 turned out to be 52.2 ± 4.6 µM.

With `COC(=O)[C@@H](Cc1ccc(O)c(CC=C(C)C)c1)[C@H](C(=O)O)c1ccc(O)cc1` [1a, (−)-Asperteretone A], the IC50 is 45.4 ± 3.8 µM.

`COC(=O)[C@H](Cc1ccc(O)c(CC=C(C)C)c1)[C@@H](C(=O)O)c1ccc(O)cc1` [1b, (+)-Asperteretone A] gave an IC50 of 53.1 ± 1.4 µM.

Regarding `CO[C@H]1OC(=O)C(c2ccc(O)cc2)=C1Cc1ccc(O)c(CC=C(C)C)c1` [2a, (−)-Asperteretone B], the IC50 came to 17.3 ± 2.4 µM.

As for `CO[C@@H]1OC(=O)C(c2ccc(O)cc2)=C1Cc1ccc(O)c(CC=C(C)C)c1` [2b, (+)-Asperteretone B], 19.2 ± 1.9 µM corresponded to half-maximal inhibition (IC50).

Turning to `CO[C@H]1OC(=O)C(c2ccc(O)cc2)=C1Cc1ccc2c(c1)CCC(C)(C)O2` [4a, (−)-Asperteretone D], it took 15.7 ± 1.1 µM to reach half-maximal inhibition (IC50).

In turn, `CO[C@@H]1OC(=O)C(c2ccc(O)cc2)=C1Cc1ccc2c(c1)CCC(C)(C)O2` [4b, (+)-Asperteretone D] displayed an IC50 of 18.9 ± 2.3 µM.

Consider `COC1OC(=O)C(c2ccc(O)cc2)=C1Cc1ccc(O)c(CCC(C)(C)O)c1` (stereo not drawn) [compound 5, Asperteretone E], for which the IC50 was determined as 48.9 ± 7.3 µM.

As usually defined, the IC50 is the concentration that gives 50% inhibition. A higher IC50 goes with weaker potency.
